Series [1] can be described thus: Distribution coefficient, log D of the compound at pH 7.4. It is filed as physicochemical. To be noted: octanol/water.
For series [2], the target named is T1, Histamine H4 receptor (Homo sapiens, UniProt Q9H3N8). The series can be described thus: Displacement of [3H]histamine from human histamine H4 receptor expressed in CHO cells after 90 mins by scintillation counting technique. Type of series: cell-based. On the technique in general: In a radioligand displacement assay an active substance lowers the binding of a labelled ligand.
T1 sequence (Q9H3N8 whole entry): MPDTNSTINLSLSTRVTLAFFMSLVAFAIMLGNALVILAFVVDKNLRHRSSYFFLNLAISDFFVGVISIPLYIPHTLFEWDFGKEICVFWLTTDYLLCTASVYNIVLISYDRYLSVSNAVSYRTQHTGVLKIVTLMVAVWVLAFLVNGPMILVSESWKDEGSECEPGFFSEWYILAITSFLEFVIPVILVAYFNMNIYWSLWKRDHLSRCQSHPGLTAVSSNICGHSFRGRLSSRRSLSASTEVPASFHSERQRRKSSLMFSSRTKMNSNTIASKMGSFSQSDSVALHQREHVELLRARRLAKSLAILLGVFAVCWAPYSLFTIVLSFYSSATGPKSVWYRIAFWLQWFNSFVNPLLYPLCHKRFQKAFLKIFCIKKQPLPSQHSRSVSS

In series [3] the target is T1, Histamine H4 receptor. In words: Antagonist activity at human histamine H4 receptor by functional assay.
Series [4] concerns the target T1, Histamine H4 receptor. The series can be described thus: Antagonist activity at human histamine H4 receptor at 15 uM by functional assay. Further details: scale not given: the % may be the effect or the level left.
In the next series the test system is Liver microsomes. In words: Intrinsic clearance in rat liver microsomes. It is filed as ADME, Microsome. For orientation: Liver microsomes are vesicles of endoplasmic reticulum, rich in cytochrome P450 enzymes.
Series [5] addresses T2, Histamine H3 receptor (Homo sapiens, UniProt Q9Y5N1). The series can be described thus: Antagonist activity at histamine H3 receptor. It is filed as functional.
A further series deals with Histamine H1 receptor (Homo sapiens, UniProt P35367). The series can be described thus: Antagonist activity at histamine H1 receptor. It is filed as functional.
Histamine H1 receptor, sequence (P35367 whole entry): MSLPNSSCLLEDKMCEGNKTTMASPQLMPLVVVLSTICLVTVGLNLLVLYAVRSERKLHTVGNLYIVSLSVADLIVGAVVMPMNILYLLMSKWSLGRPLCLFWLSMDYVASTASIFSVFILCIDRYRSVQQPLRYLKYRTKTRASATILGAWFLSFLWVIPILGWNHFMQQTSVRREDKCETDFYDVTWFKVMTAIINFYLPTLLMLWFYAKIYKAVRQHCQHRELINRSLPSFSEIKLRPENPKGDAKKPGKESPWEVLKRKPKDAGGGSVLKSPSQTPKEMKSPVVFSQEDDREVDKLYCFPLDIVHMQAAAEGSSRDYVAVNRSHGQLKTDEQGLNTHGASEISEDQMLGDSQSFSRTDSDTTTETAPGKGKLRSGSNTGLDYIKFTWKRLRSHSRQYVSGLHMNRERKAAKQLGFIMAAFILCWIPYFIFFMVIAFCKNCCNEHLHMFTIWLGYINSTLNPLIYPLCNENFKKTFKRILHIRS
For another series, the target named is Histamine H2 receptor (Homo sapiens, UniProt P25021). In words: Antagonist activity at histamine H2 receptor. Type of series: functional.
Histamine H2 receptor, sequence (P25021 whole entry): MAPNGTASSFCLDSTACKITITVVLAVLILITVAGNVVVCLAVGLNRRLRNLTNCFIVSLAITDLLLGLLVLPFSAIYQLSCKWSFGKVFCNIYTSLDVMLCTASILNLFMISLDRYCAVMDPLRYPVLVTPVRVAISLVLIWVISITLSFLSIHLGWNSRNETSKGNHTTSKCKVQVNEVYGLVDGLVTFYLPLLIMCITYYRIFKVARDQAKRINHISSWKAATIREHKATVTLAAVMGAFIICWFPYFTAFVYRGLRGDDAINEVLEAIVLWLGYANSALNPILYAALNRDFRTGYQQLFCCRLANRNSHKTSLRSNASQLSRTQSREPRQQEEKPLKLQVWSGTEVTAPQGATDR
The nature of series [6]: Metabolic stability in human liver microsomes. Type of series: ADME, Microsome. To be noted: read-out: Stability.
The nature of series [7]: Metabolic stability in rat liver microsomes. It is filed as ADME, Microsome. To be noted: read-out: Stability.
Series [8] addresses T2, Histamine H3 receptor. In words: Binding affinity to histamine H3 receptor.
Series [9] concerns the target T2, Histamine H3 receptor. In words: Binding affinity to human histamine H3 receptor.

A value given as a limit tells only on which side of the number the result lay.

T2 sequence (Q9Y5N1 whole entry): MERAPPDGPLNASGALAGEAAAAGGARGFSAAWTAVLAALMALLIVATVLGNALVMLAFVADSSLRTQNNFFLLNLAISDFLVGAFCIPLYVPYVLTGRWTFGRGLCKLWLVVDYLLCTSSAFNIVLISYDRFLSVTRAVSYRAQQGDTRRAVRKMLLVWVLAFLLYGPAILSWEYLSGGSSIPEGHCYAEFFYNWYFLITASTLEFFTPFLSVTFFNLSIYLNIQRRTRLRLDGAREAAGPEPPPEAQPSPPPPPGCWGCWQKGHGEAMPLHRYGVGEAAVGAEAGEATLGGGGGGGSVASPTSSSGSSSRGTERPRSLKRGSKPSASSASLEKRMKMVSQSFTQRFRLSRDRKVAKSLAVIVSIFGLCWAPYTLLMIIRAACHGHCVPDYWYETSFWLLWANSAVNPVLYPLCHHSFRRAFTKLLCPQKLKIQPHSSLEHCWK

Take `CN1CCN(c2cnc3ccccc3n2)CC1`: the logD (usually the decadic logarithm of the distribution of all forms, ionised or not, between an organic phase and buffer at a given pH) in series [1] was 1.76. In addition, on Histamine H4 receptor [2], the affinity corresponds to a Ki of 1.06 µM.
With `CN1CCN(c2cc(N3[C@@H]4CCC[C@@H]3C4)ncn2)CC1`, the affinity at Histamine H4 receptor [2] corresponds to a Ki of 0.86 µM.
As to `COc1ccccc1Cn1ccc(NCCc2cnc[nH]2)nc1=O`, the inhibitory constant (Ki) – broadly, the dissociation constant of the complex between target and ligand, obtained from inhibition or displacement – at Histamine H4 receptor [3] is above 2 µM; on Histamine H4 receptor [2] it was 1.6 µM. Moreover, on Histamine H4 receptor [4], the Activity was 65%.
For the compound `CN1CCN(c2cc(NC3Cc4ccccc4C3)ncn2)CC1`, on Histamine H4 receptor [2], the Ki stood at 0.212 µM.
Compound `CN(C)CCNc1cc(NCC2CC2)ncn1` returned a CL in the series with Liver microsomes of 143 µL/min.
Take `CN1CCN(c2cc(C(=O)NCc3cccc(C(F)(F)F)c3)ncn2)CC1`: the Activity on Histamine H4 receptor [4] was found to be 57%. In addition, the affinity on Histamine H4 receptor [2] corresponds to a Ki of 34.9 µM.
Consider `CN1CCN(c2cc(NCc3ccccc3)ncn2)CC1`, for which, on Histamine H4 receptor [2], the affinity, expressed as Ki, was 0.207 µM.
For the compound `COc1cccc(C(O)(COc2ccccc2C)CN2CCN(C)CC2)c1` (stereo not given), the Ki was above 2 µM at Histamine H4 receptor [3], 2.5 µM on Histamine H3 receptor [5] and 3.24 µM at Histamine H4 receptor [2]. This compound also yielded an Activity on Histamine H4 receptor [4] of 60%.
On to `CN1CCN(c2cc(NCCC(C)(C)C)ncn2)CC1`, for which the Ki on Histamine H4 receptor [3] is 0.037 µM; at Histamine H1 receptor it was above 10 µM; at Histamine H2 receptor, 3.56 µM; on Histamine H3 receptor [8] it was 0.646 µM. Also, the logD in [1] came out at 2.6. Moreover, the microsomal CLint in series [6] was 16 µL/min/mg; in series [7] it was 147 µL/min/mg.
Compound `COCc1ccc(CN2CC[C@H](Nc3cc(NCCC(C)(C)C)ncn3)C2)o1` returned a Ki at Histamine H4 receptor [2] (cho) of 20 µM.
As for `CN1CCN(C(=O)c2nc3cc(Cl)ccc3[nH]2)CC1`, the values for the Ki on Histamine H4 receptor [3] and on Histamine H4 receptor [2] were 0.0396 µM and 0.0477 µM, respectively.
In series [1], `CN1CCCN(c2cc(NCC(C)(C)C)ncn2)CC1` showed a logD of 0.96.
The compound `Cc1ccc(C#N)c(N2CC3CN(C)CC3C2)n1` (stereo not given) had a logD in series [1] of -0.86. This compound came in with a Ki at Histamine H4 receptor [2] of 0.93 µM.
For `CC(C)(C)CCNc1cc(N2CCNCC2)ncn1`, the logD in [1] is 1.4.
`CC(C)(C)CCNc1cc(N[C@H]2CCNC2)ncn1`: the Ki on Histamine H4 receptor [3] was 0.572 µM; at Histamine H3 receptor [5], 8.22 µM; on Histamine H1 receptor it was above 40 µM; on Histamine H2 receptor, 8.82 µM. In addition, in series [1], the logD came to 0.6.
On Histamine H4 receptor [2], `CN1CC[C@H](Nc2cc(NCCC(C)(C)C)ncn2)C1` returned a Ki of 0.593 µM.
On to `CC(C)(C)CCNc1cc(NC2CCN(Cc3ccc(CO)o3)C2)ncn1` (stereo not given), for which the Activity on Histamine H4 receptor [4] was found to be 73%. This compound returned a Ki at Histamine H4 receptor [2] of 2.11 µM.
`CN1CCN(c2cc(NCC(C)(C)C)ncn2)CC1` had a log distribution coefficient (logD) in series [1] of 1.75. The same compound gave a Ki at Histamine H3 receptor [9] of 0.825 µM.
For the compound `CC(C)(C)CCNc1cc(N2CCN(C3CCCCC3)CC2)ncn1`, the logD in [1] is 3.84. Moreover, the Ki on Histamine H4 receptor [2] turned out to be 0.601 µM.
On to `CN(C)[C@@H]1CCN(c2cc(NCC(C)(C)C)ncn2)C1`, for which, in series [1], the logD turned out to be 1.09. The Ki on Histamine H3 receptor [9] was determined as 0.054 µM.
Consider `CC(C)(C)CCNc1cc(N[C@@H]2CCNC2)ncn1`, for which, at Histamine H3 receptor [5], the Ki is 13.6 µM.
In turn, `CC(C)(C)CCNc1cc(N[C@H]2CCN(Cc3cccc(F)c3O)C2)ncn1` displayed a Ki at Histamine H4 receptor [2] (cho) of 20 µM.

The record behind these values is ChEMBL document CHEMBL1914410, “Discovery of a series of potent and selective human H4 antagonists using ligand efficiency and libraries to explore structure-activity relationship (SAR)” (Bioorg Med Chem Lett, 2011).
